Experimental data as given in patent publication US4705900A, “Insecticidal alkenes” (Imperial Chemical Industries PLC, priority 1985, dated 1987).

Key:
Chilo partellurs = test: mortality of stem borers (CP), residual test; type: in vivo, Chilo partellurs (Stem borers); conditions: Chilo, 72 h, oil seed rape leaf, 3 days, read-out: grading of mortality, CP
Method: (§1) The activity of the Product was determined using a variety of insect pests. The Product was used in the form of liquid preparations containing 500 or 100 parts per million (ppm) by weight of the Product. The preparations were made by dissolving the Product in acetone and diluting the solutions with water containing 0.01% by weight of a wetting agent sold under the trade name "LISSAPOL" NX until the liquid preparations contained the required concentration of the Product. "Lissapol" is a Registered Trade Mark.
(§2) The test procedure adopted with regard to each pest was basically the same and comprised supporting a number of the pests on a medium which was usually a host plant or a foodstuff on which the pests feed, and treating either or both the pests and the medium with the preparations. The mortality of the pests was then assessed at periods usually varying from one to three days after the treatment.
(§3) The results of the tests are given in Table IV for each of the Products, at the rate in parts per million given in the second column as a grading of mortality designated as A, B or C wherein A indicates 80-100% mortality or knockdown, B indicates 50-79% mortality or knockdown and C indicates less than 50% mortality or knockdown.
(§4) In Table IV the pest organism used is designated by a letter code and the pests species, the support medium or food, and the type and duration of test is given in Table III.

Nilaparvata lugens = test: mortality of green leaf hopper (NL), contact test; type: in vivo, Nilaparvata lugens (brown planthopper); conditions: Nilaparvata lugens, in Brassica oleracea, 144 h, cabbage leaf, 6 days, read-out: grading of mortality, NL
Method: as §1, §2, §3, §4

Blattella germanica = test: mortality of cockroach nymphs (BG), residual test; type: in vivo, Blattella germanica (cockroach nymphs); conditions: Blattella germanica, 72 h, plastic pot, 3 days, read-out: grading of mortality, BG
Method: as §1, §2, §3, §4

Musca domestica [1] = test: mortality of houseflies (MD), contact test; type: in vivo, Musca domestica (houseflies - adults); conditions: Musca domestica, 24 h, cotton wool/sugar, 1 day, read-out: grading of mortality, MD
Method: as §1, §2, §3, §4

Musca domestica [2] = test: knockdown of houseflies (MD/KD); type: in vivo, Musca domestica (houseflies - adults); conditions: Musca domestica, cotton wool/sugar, 4 hours, read-out: grading of knockdown, MD/KD
Method: as §1, §2
In case of the species Musca domestica (housefly), additional tests to determine the knockdown effect of the compounds were performed.
as §3, §4

Tetranychus urticae = test: mortality of red spider mites (TU), contact test; type: in vivo, Tetranychus urticae (red spider mites - adult); conditions: Tetranychus urticae, 72 h, French bean leaf, 3 days, read-out: grading of mortality, TU
Method: as §1, §2, §3, §4
(red spider mites - adult)

Diabrotica balteata = test: mortality of rootworm larvae (DB), residual test; type: in vivo, Diabrotica balteata (rootworm larvae); conditions: Diabrotica balteata, in Zea mays, 72 h, filter paper/maize seed, 3 days, read-out: grading of mortality, DB
Method: as §1, §2, §3, §4

Myzus persicae = test: mortality of aphids (MP), contact test; type: in vivo, Myzus persicae (aphids); conditions: Myzus persicae, 48 h, leaf, 2 days, read-out: grading of mortality, MP
Method: as §1, §2, §3, §4

Heliothis viriscens = test: whole plant or invertebrate; type: in vivo, Heliothis viriscens (tobacco budworm); conditions: in Gossypium hirsutum, 72 h, read-out: grading of mortality, HV
Method: as §1, §2, §3, §4

Row | SMILES | mortality at 500 ppm (Chilo partellurs) | mortality at 500 ppm (Nilaparvata lugens) | mortality at 500 ppm (Blattella germanica) | mortality at 500 ppm (Musca domestica [1]) | pest or weed control at 500 ppm (Musca domestica [2]) | mortality at 500 ppm (Tetranychus urticae) | mortality at 500 ppm (Diabrotica balteata) | mortality at 500 ppm (Myzus persicae) | mortality at 500 ppm (Heliothis viriscens) | mortality at 100 ppm (Chilo partellurs) | mortality at 100 ppm (Nilaparvata lugens) | mortality at 100 ppm (Blattella germanica) | mortality at 100 ppm (Musca domestica [1]) | pest or weed control at 100 ppm (Musca domestica [2]) | mortality at 100 ppm (Tetranychus urticae) | mortality at 100 ppm (Diabrotica balteata) | mortality at 100 ppm (Myzus persicae) | mortality at 100 ppm (Heliothis viriscens)
1 | Cc1ccc(C=CC(C)(C)COCc2cccc(Oc3ccccc3)c2)cc1 [Compound 14, 3,3-Dimethyl-1-(4-methylphenyl)-4-(3-phenoxybenzyloxy)but-1-ene] | 80 to 100% | 50 to 79% | < 50% | < 50% | < 50% | < 50% | 50 to 79% | < 50% | 80 to 100% |  |  |  |  |  |  |  |  | 
2 | CC(C)(C=Cc1cc(Cl)cc(Cl)c1)COCc1cccc(Oc2ccccc2)c1 [Compound 15, 3,3-Dimethyl-1-(3,5-dichlorophenyl)-4-(3-phenoxybenzyloxy)but-1-ene] | 80 to 100% | < 50% | < 50% | < 50% | < 50% | < 50% | < 50% | < 50% | < 50% |  |  |  |  |  |  |  |  | 
3 | CC(C)(C=Cc1ccccc1F)COCc1cccc(Oc2ccccc2)c1 [Compound 16, 3,3-Dimethyl-1-(2-fluorophenyl)-4-(3-phenoxybenzyloxy)but-1-ene] | < 50% | < 50% | < 50% | < 50% | < 50% | < 50% | < 50% | < 50% | < 50% |  |  |  |  |  |  |  |  | 
4 | CC(C)(C=Cc1cccc(F)c1)COCc1cccc(Oc2ccccc2)c1 [Compound 17, 3,3-Dimethyl-1-(3-fluorophenyl)-4-(3-phenoxybenzyloxy)but-1-ene] | 80 to 100% | < 50% | < 50% | < 50% | < 50% | < 50% | < 50% | < 50% | 80 to 100% |  |  |  |  |  |  |  |  | 
5 | CC(C)(C=Cc1ccc(F)c(F)c1)COCc1cccc(Oc2ccccc2)c1 [Compound 18, 3,3-Dimethyl-1-(3,4-difluorophenyl)-4-(3-phenoxybenzyloxy)but-1-ene] | 80 to 100% | < 50% | < 50% | < 50% | < 50% | 50 to 79% | < 50% | < 50% | 80 to 100% |  |  |  |  |  |  |  |  | 
6 | Fc1ccc(/C=C/C2(COCc3cccc(Oc4ccccc4)c3)CC2)cc1 [Compound 19, 1-[2-(4-fluorophenyl)ethen-1-yl]-1-(3-phenoxybenzyloxymethyl)cyclopropane] |  |  |  |  |  |  |  |  |  | < 50% | < 50% | < 50% | < 50% | < 50% | < 50% | < 50% | < 50% | 80 to 100%
7 | Fc1ccc(/C=C\C2(COCc3cccc(Oc4ccccc4)c3)CC2)cc1 [Compound 20, 1-[2-(4-fluorophenyl)ethen-1-yl]-1-(3-phenoxybenzyloxymethyl)cyclopropane] | 80 to 100% | < 50% | < 50% | < 50% | < 50% | < 50% | < 50% | 50 to 79% | < 50% |  |  |  |  |  |  |  |  | 
8 | CC(C)(/C=C\c1ccccc1)COCc1ccc(F)c(Oc2ccccc2)c1 [Compound 21, 3,3-Dimethyl-1-phenyl-4-(4-fluoro-3-phenoxybenzyloxy)but-1-ene] |  |  |  |  |  |  |  |  |  | 80 to 100% | < 50% | < 50% | < 50% | < 50% | < 50% | < 50% | < 50% | < 50%
9 | Clc1ccc(/C=C/C2(COCc3cccc(Oc4ccccc4)c3)CC2)cc1 [Compound 22, 1-[2-(4-chlorophenyl)ethen-1-yl]-1-(3-phenoxybenzyloxymethyl)cyclopropane] | 80 to 100% | 50 to 79% | < 50% | < 50% | < 50% | < 50% | < 50% | < 50% | < 50% |  |  |  |  |  |  |  |  | 
10 | Clc1ccc(/C=C\C2(COCc3cccc(Oc4ccccc4)c3)CC2)cc1 [Compound 23, 1-[2-(4-chlorophenyl)ethen-1-yl]-1-(3-phenoxybenzyloxymethyl)cyclopropane] | 80 to 100% | 80 to 100% | < 50% | < 50% | < 50% | < 50% | < 50% | < 50% | < 50% |  |  |  |  |  |  |  |  | 
11 | COc1ccc(/C=C/C(C)(C)COCc2ccc(F)c(Oc3ccccc3)c2)cc1 [Compound 24, 3,3-dimethyl-1-(4-methoxyphenyl)-4-(4-fluoro-3-phenoxybenzyloxy)but-1-ene] | 80 to 100% | 80 to 100% | < 50% | 80 to 100% | 80 to 100% | 50 to 79% | < 50% | 50 to 79% | 50 to 79% |  |  |  |  |  |  |  |  | 
12 | CCC(C)(/C=C\c1ccc(Cl)cc1)COCc1cccc(Oc2ccccc2)c1 (stereo not drawn) [Compound 26, 3-Ethyl-3-methyl-1-(4-chlorophenyl)-4-(3-phenoxybenzyloxy)but-1-ene] | < 50% | < 50% | < 50% | < 50% | < 50% | < 50% | < 50% | < 50% | < 50% |  |  |  |  |  |  |  |  | 
13 | CCOc1ccc(CCC(C)(C)COCc2cccc(Oc3ccccc3)c2)cc1 [Compound 33, 3,3-Dimethyl-1-(4-ethoxyphenyl)-4-(3-phenoxybenzyloxy)butane] | 80 to 100% | < 50% | < 50% | < 50% | < 50% | < 50% | < 50% | < 50% | < 50% |  |  |  |  |  |  |  |  | 
14 | CC(C)(CCc1ccc(Cl)cc1)COCc1cccc(Oc2ccccc2)c1 [Compound 34, 3,3-dimethyl-1-(4-chlorophenyl)-4-(3-phenoxybenzyloxy)butane] | 80 to 100% | < 50% | < 50% | < 50% | < 50% | 50 to 79% | < 50% | < 50% | 80 to 100% |  |  |  |  |  |  |  |  | 
